Converted amounts (≈) assume the structure as drawn.
Legend:
Type in all cases: cell-based
[1] = tested on: S. aureus (CiproS); assay: In vitro MIC, agar dilution; settings: Staphylococcus aureus
[2] = tested on: M. avium; assay: In vitro MIC, agar dilution; settings: Mycobacterium avium, M. avium, 20 isolates
[3] = tested on: P. mirabilis; assay: In vitro MIC, agar dilution; settings: Proteus mirabilis
[4] = tested on: S. pneumoniae (PenS); assay: In vitro MIC, agar dilution; settings: Streptococcus pneumoniae
[5] = tested on: Providencia spp.; assay: In vitro MIC, agar dilution; settings: Providencia spp., 28 isolates
[6] = tested on: S. aureus (CiproR); assay: In vitro MIC, agar dilution; settings: Staphylococcus aureus
[7] = tested on: S. pyogenes; assay: In vitro MIC, agar dilution; settings: Streptococcus pyogenes
[8] = tested on: N. gonorrhoeae; assay: In vitro MIC, agar dilution; settings: Neisseria gonorrhoeae
[9] = tested on: E. faecium (VanS); assay: In vitro MIC, agar dilution; settings: Enterococcus faecium
[10] = tested on: E. faecium (CiproR); assay: In vitro MIC, agar dilution; settings: Enterococcus faecium, read-out: MIC Range
[11] = tested on: Klebsiella spp.; assay: In vitro MIC, agar dilution
[12] = tested on: Enterobacter spp.; assay: In vitro MIC, agar dilution
[13] = tested on: Salmonella spp.; assay: In vitro MIC, agar dilution; settings: 23 isolates
Protocol: (§1) Each plate was inoculated with 1:100 (or 1:10 for slow-growing strains, primarily Micrococcus and Streptococcus) dilutions of up to 32 different microorganisms, using a Steers replicator block calibrated to deliver approximately 10^4 colony forming units (CFU's). The inoculated plates were incubated at from about 35° C. to about 37 ° C. for approximately 20-24 hours. In addition, a control plate using BHI agar containing no test compound was prepared and incubated at the beginning and at the end of each test. The quinolone antibacterial ciprofloxacin was used as a control ("Cntl").
(§2) The numbers below the microorganism species indicate the nunbers of isolates tested. […] The MIC is defined as the lowest concentration of test compound yielding no growth (a slight haze or sparsely isolated colonies at the inoculum spot) as compared to the growth control containing no test compound.

[14] = tested on: E. coli; assay: In vitro MIC, agar dilution; settings: Escherichia coli, 25 isolates
Protocol: as §1, §2

[15] = tested on: E. faecium (CiproS); assay: In vitro MIC, agar dilution; settings: Enterococcus faecium
[16] = tested on: H. pylori; assay: In vitro MIC, agar dilution; settings: Helicobacter pylori
[17] = tested on: Enterococcus spp. (VanR); assay: In vitro MIC, agar dilution; settings: Enterococcus spp. (VanR), 21 isolates
[18] = tested on: S. pneumoniae (CiproR); assay: In vitro MIC, agar dilution; settings: Streptococcus pneumoniae, read-out: MIC Range
[19] = tested on: Shigella spp.; assay: microbe, parasite or virus in culture; settings: read-out: MIC Range
[20] = tested on: E. faecalis (VanS); assay: In vitro MIC, agar dilution; settings: Enterococcus faecalis
[21] = tested on: P. aeruginosa (CiproR); assay: In vitro MIC, agar dilution; settings: Pseudomonas aeruginosa
[22] = tested on: C. difficile; assay: In vitro MIC, agar dilution; settings: Clostridioides difficile; C. difficile, 10 isolates; read-out: MIC90
[23] = tested on: Legionella spp.; assay: microbe, parasite or virus in culture; settings: Legionella
[24] = tested on: S. epidermidis (CiproS); assay: In vitro MIC, agar dilution; settings: Staphylococcus epidermidis
[25] = tested on: M. catarrhalis; assay: In vitro MIC, agar dilution; settings: Moraxella catarrhalis
[26] = tested on: S. pneumoniae (PenR); assay: In vitro MIC, agar dilution; settings: Streptococcus pneumoniae
[27] = tested on: M. pneumoniae; assay: In vitro MIC, agar dilution; settings: Mycoplasmoides pneumoniae, read-out: MIC Range
[28] = tested on: P. aeruginosa (CiproS); assay: In vitro MIC, agar dilution; settings: Pseudomonas aeruginosa, P. aeruginosa (CiproS), 24 isolates
[29] = tested on: H. influenzae; assay: In vitro MIC, agar dilution; settings: Haemophilus influenzae

SMILES: N[C@@H]1[C@H]2CN(c3nc4c(cc3F)c(=O)c(C(=O)O)cn4-c3ccc(F)cc3F)C[C@@H]12 [Trovafloxacin, trovafloxacin]
- MIC50 [1]: 0.03 mg/L (≈ 0.0721 µM)
- MIC90 [1]: 0.03 mg/L (≈ 0.0721 µM)
- MIC ([1]; S. aureus (CiproS), 21 isolates, read-out: MIC Range): 0.008 to 0.03 mg/L (≈ 0.0192 to 0.0721 µM)
- MIC50 ([2]; read-out: MIC50): 32 mg/L (≈ 76.9 µM)
- MIC90 ([2]; read-out: MIC90): 64 mg/L (≈ 154 µM)
- MIC ([2]; read-out: MIC Range): 8 to 128 mg/L (≈ 19.2 to 307 µM)
- MIC90 [3]: 0.5 mg/L (≈ 1.2 µM)
- MIC ([3]; read-out: MIC Range): 0.25 to 0.5 mg/L (≈ 0.6 to 1.2 µM)
- MIC50 ([3]; P. mirabilis, 20 isolates, read-out: MIC50): 0.25 mg/L (≈ 0.6 µM)
- MIC90 [4]: 0.5 mg/L (≈ 1.2 µM)
- MIC ([4]; read-out: MIC Range): 0.12 to 0.5 mg/L (≈ 0.288 to 1.2 µM)
- MIC50 ([4]; S. pneumoniae (PenS), 20 isolates, read-out: MIC50): 0.5 mg/L (≈ 1.2 µM)
- MIC50 ([5]; read-out: MIC50): 0.25 mg/L (≈ 0.6 µM)
- MIC90 ([5]; read-out: MIC90): 2 mg/L (≈ 4.8 µM)
- MIC ([5]; read-out: MIC Range): 0.03 to 2 mg/L (≈ 0.0721 to 4.8 µM)
- MIC ([6]; read-out: MIC Range): 0.25 to 4 mg/L (≈ 0.6 to 9.61 µM)
- MIC50 ([6]; S. aureus (CiproR), 25 isolates, read-out: MIC50): 2 mg/L (≈ 4.8 µM)
- MIC90 ([6]; S. aureus (CiproR), 25 isolates, read-out: MIC90): 2 mg/L (≈ 4.8 µM)
- MIC90 [7]: 0.25 mg/L (≈ 0.6 µM)
- MIC50 ([7]; S. pyogenes, 21 isolates, read-out: MIC50): 0.12 mg/L (≈ 0.288 µM)
- MIC ([7]; S. pyogenes, 21 isolates, read-out: MIC Range): 0.06 to 1 mg/L (≈ 0.144 to 2.4 µM)
- MIC90 [8]: 0.06 mg/L (≈ 0.144 µM)
- MIC ([8]; read-out: MIC Range): 0.015 to 0.12 mg/L (≈ 0.036 to 0.288 µM)
- MIC50 ([8]; N. gonorrhoeae, 12 isolates, read-out: MIC50): 0.015 mg/L (≈ 0.036 µM)
- MIC ([9]; read-out: MIC Range): 0.25 to 4 mg/L (≈ 0.6 to 9.61 µM)
- MIC50 ([9]; E. faecium (VanS), 11 isolates, read-out: MIC50): 2 mg/L (≈ 4.8 µM)
- MIC90 ([9]; E. faecium (VanS), 11 isolates, read-out: MIC90): 2 mg/L (≈ 4.8 µM)
- MIC [10]: 2 to 32 mg/L (≈ 4.8 to 76.9 µM)
- MIC90 ([11]; Klebsiella): 0.25 mg/L (≈ 0.6 µM)
- MIC50 ([11]; Klebsiella spp., 29 isolates, read-out: MIC50): 0.12 mg/L (≈ 0.288 µM)
- MIC ([11]; Klebsiella spp., 29 isolates, read-out: MIC Range): 0.015 to 0.5 mg/L (≈ 0.036 to 1.2 µM)
- MIC90 ([12]; Enterobacter): 0.12 mg/L (≈ 0.288 µM)
- MIC50 ([12]; Enterobacter spp., 35 isolates, read-out: MIC50): 0.12 mg/L (≈ 0.288 µM)
- MIC ([12]; Enterobacter spp., 35 isolates, read-out: MIC Range): 0.015 to 0.5 mg/L (≈ 0.036 to 1.2 µM)
- MIC [13]: 0.03 to 1 mg/L (≈ 0.0721 to 2.4 µM)
- MIC50 ([13]; read-out: MIC50): 0.06 mg/L (≈ 0.144 µM)
- MIC90 ([13]; read-out: MIC90): 0.12 mg/L (≈ 0.288 µM)
- MIC [14]: 0.015 to 0.03 mg/L (≈ 0.036 to 0.0721 µM)
- MIC50 ([14]; read-out: MIC50): 0.03 mg/L (≈ 0.0721 µM)
- MIC90 ([14]; read-out: MIC90): 0.03 mg/L (≈ 0.0721 µM)
- MIC ([15]; read-out: MIC Range): 0.25 to 1 mg/L (≈ 0.6 to 2.4 µM)
- MIC50 ([15]; E. faecium (CiproS), 16 isolates, read-out: MIC50): 0.5 mg/L (≈ 1.2 µM)
- MIC90 ([15]; E. faecium (CiproS), 16 isolates, read-out: MIC90): 1 mg/L (≈ 2.4 µM)
- MIC90 [16]: 0.5 mg/L (≈ 1.2 µM)
- MIC50 ([16]; H. pylori, 17 isolates, read-out: MIC50): 0.12 mg/L (≈ 0.288 µM)
- MIC ([16]; H. pylori, 17 isolates, read-out: MIC Range): 0.06 to 1 mg/L (≈ 0.144 to 2.4 µM)
- MIC50 ([17]; read-out: MIC50): 1 mg/L (≈ 2.4 µM)
- MIC90 ([17]; read-out: MIC90): 1 mg/L (≈ 2.4 µM)
- MIC ([17]; read-out: MIC Range): 0.06 to 32 mg/L (≈ 0.144 to 76.9 µM)
- MIC [18]: 0.5 to 1 mg/L (≈ 1.2 to 2.4 µM)
- MIC [19]: 0.015 to 0.06 mg/L (≈ 0.036 to 0.144 µM)
- MIC ([20]; read-out: MIC Range): 0.25 to 1 mg/L (≈ 0.6 to 2.4 µM)
- MIC50 ([20]; E. faecalis (VanS), 17 isolates, read-out: MIC50): 0.5 mg/L (≈ 1.2 µM)
- MIC90 ([20]; E. faecalis (VanS), 17 isolates, read-out: MIC90): 1 mg/L (≈ 2.4 µM)
- MIC90 [21]: > 128 mg/L
- MIC50 ([21]; P. aeruginosa (CiproR), 20 isolates, read-out: MIC50): > 128 mg/L
- MIC90 [22]: 2 mg/L (≈ 4.8 µM)
- MIC50 [23]: 0.12 mg/L (≈ 0.288 µM)
- MIC90 [23]: 0.25 mg/L (≈ 0.6 µM)
- MIC ([23]; read-out: MIC Range): 0.12 to 0.25 mg/L (≈ 0.288 to 0.6 µM)
- MIC90 [24]: 0.06 mg/L (≈ 0.144 µM)
- MIC50 ([24]; S. epidermidis (CiproS), 23 isolates, read-out: MIC50): 0.06 mg/L (≈ 0.144 µM)
- MIC ([24]; S. epidermidis (CiproS), 23 isolates, read-out: MIC Range): 0.015 to 0.06 mg/L (≈ 0.036 to 0.144 µM)
- MIC50 [25]: 0.03 mg/L (≈ 0.0721 µM)
- MIC90 [25]: 0.06 mg/L (≈ 0.144 µM)
- MIC ([25]; M. catarrhalis, 18 isolates, read-out: MIC Range): 0.015 to 0.25 mg/L (≈ 0.036 to 0.6 µM)
- MIC90 [26]: 0.25 mg/L (≈ 0.6 µM)
- MIC ([26]; read-out: MIC Range): 0.06 to 0.25 mg/L (≈ 0.144 to 0.6 µM)
- MIC50 ([26]; S. pneumoniae (PenR), 25 isolates, read-out: MIC50): 0.25 mg/L (≈ 0.6 µM)
- MIC [27]: 0.12 to 0.25 mg/L (≈ 0.288 to 0.6 µM)
- MIC50 ([28]; read-out: MIC50): 0.5 mg/L (≈ 1.2 µM)
- MIC90 ([28]; read-out: MIC90): 2 mg/L (≈ 4.8 µM)
- MIC ([28]; read-out: MIC Range): 0.12 to 4 mg/L (≈ 0.288 to 9.61 µM)
- MIC90 [29]: 0.03 mg/L (≈ 0.0721 µM)
- MIC50 ([29]; H. influenzae, 18 isolates, read-out: MIC50): 0.015 mg/L (≈ 0.036 µM)
- MIC ([29]; H. influenzae, 18 isolates, read-out: MIC Range): 0.008 to 0.06 mg/L (≈ 0.0192 to 0.144 µM)

From patent US5977133A, “Pyridone antibiotic with improved safety profile” (priority 1998, dated 1999)
